According to ChEMBL document CHEMBL5604063, “ASAP - DENV-2 NS2B-NS3 protease fluorescence dose response” (2024):
pIC50: −log10 of the molar value. Values joined by “and” are separate entries in the source; they are usually repeats but may differ in a detail not shown here. Equal values may be shown once.

Tests used:
[1] = biological target: T1, Genome polyprotein (dengue virus type 2, UniProt P29990); assay type: functional, Thailand/16681/1984
[2] = biological target: T1, Genome polyprotein; assay type: functional, Thailand/16681/1984; remark: listed apart in the source

T1 sequence (P29990 1346-1475 limits assumed): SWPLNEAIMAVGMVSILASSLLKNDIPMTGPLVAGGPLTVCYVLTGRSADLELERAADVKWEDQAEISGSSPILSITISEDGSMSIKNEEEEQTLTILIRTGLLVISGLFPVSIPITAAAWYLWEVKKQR
T1 sequence (P29990 1476-2093 limits assumed): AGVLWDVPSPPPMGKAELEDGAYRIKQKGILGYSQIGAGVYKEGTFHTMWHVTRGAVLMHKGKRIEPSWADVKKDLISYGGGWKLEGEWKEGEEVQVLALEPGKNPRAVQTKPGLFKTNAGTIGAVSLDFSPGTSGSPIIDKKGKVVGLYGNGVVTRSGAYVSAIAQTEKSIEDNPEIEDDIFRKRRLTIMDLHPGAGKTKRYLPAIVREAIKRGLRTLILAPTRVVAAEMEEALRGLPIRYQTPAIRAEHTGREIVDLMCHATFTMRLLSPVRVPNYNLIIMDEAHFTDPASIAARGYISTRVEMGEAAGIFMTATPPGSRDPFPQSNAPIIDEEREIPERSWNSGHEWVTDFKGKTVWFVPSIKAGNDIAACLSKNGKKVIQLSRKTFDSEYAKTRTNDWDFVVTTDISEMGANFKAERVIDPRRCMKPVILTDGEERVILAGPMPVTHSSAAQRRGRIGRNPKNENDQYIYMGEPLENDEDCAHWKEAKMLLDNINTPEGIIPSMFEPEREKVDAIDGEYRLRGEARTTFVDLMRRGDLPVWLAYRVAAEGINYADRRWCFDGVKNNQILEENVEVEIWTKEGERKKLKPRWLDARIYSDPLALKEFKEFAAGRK

Compound | pIC50 [1] | pIC50 [2]
O=C(Nc1cc(Cl)cc(C(=O)NCC[C@H]2C[C@@H]2C(=O)O)c1)OCc1ccccc1 | < 4.00 | < 4.00
C=CC[C@H](Nc1cccc(C2(C(=O)O)CCC2)c1)c1cc(Cl)cc(NC(=O)OCc2ccccc2)c1 | 4.76 | 4.78
c1ccc2c(Cc3ccc(-c4nnn[nH]4)cc3)c[nH]c2c1 | < 4.00 | < 4.00
O=C(NCC1CCNCC1)c1cc(Cl)cc2[nH]ncc12 | < 4.00 | < 4.00
Cc1cc(=O)[nH]c(-c2cccc(NC(=O)c3cc(C4CC4)n(C)c3C)c2)n1 | < 4.00 | < 4.00
C[C@H]1Oc2ccc(NC(=O)c3cc(Cl)cc(NC(=O)OCc4ccccc4)c3)cc2NC1=O | < 4.00 | < 4.00
Nc1ccncc1-c1cc(F)cc(C(=O)Nc2ccc3c(c2)CNC3)c1 | < 4.00 | < 4.00
O=C(Nc1cc(Cl)cc(C(=O)Nc2ccc3c(c2)OCCNC3)c1)OCc1ccccc1 | < 4.00 | < 4.00
O=C(Nc1ccc2c(c1)CNC2)c1cccc2[nH]c(C(F)(F)F)cc12 | < 4.00 | 4.04
COCCOc1ccc(Cl)cc1C(=O)Nc1cccc(CN)c1 | < 4.00 | < 4.00
O=C1Cc2c(cccc2C(=O)Nc2ccc3c(c2)[C@H](O)CCO3)N1 | < 4.00 | < 4.00
NCc1cccc(NC(=O)[C@H](NC(=O)OCc2ccccc2)C2CCN(C3CCCC3)CC2)c1 | < 4.00 | < 4.00
O=C(Nc1ccc2c(c1)CNC2)c1cc(F)cc2c1CCNC2 | < 4.00 | < 4.00
O=C(Nc1ccc2c(c1)CNC2)c1ccnc(CO)c1 | < 4.00 | < 4.00
CN(C)C(=O)C[C@H]1NCc2cc(NC(=O)c3cc(F)cc4[nH]ncc34)ccc21 | 4.26 and 4.14 | < 4.00
CC(C)NC(=O)[C@H](Nc1cccc(-c2nn[nH]n2)c1)c1cc(Cl)cc(NC(=O)OCc2ccccc2)c1 | 4.91 | 4.67
CCc1ccc([C@@H](CC(=O)Nc2cccc(CN)c2)NC(=O)OCc2ccccc2)cc1Br | 4.07 | 4.78 and 4.65
Cc1c(C(=O)Nc2cccc(-c3nnn[nH]3)c2)n[nH]c1-c1ccc(Cl)cc1 | 4.74 | 4.38
O=C(Nc1ccc2c(c1)CNC2)c1cc(F)cc(-c2cccnc2)c1 | < 4.00 | < 4.00
Cn1cc(-c2cccc([C@@H](NC(=O)OCc3ccccc3)C(=O)Nc3cccc(CN)c3)c2)ccc1=O | < 4.00 | < 4.00

Compound | pIC50 [1] | pIC50 [2]
Clc1cc(CNc2ccc3c(c2)CNC3)c2cn[nH]c2c1 | < 4.00 | 4.72 and 4.26
Cn1nc(C(=O)Nc2cc(-c3cccnc3)ccn2)cc1C1CC1 | < 4.00 | < 4.00
O=C1Cc2c(cccc2C(=O)NC2CCC3(CC2)COC3)N1 | < 4.00 | < 4.00
NCc1ccc(I)c(NC(=O)c2cc(Cl)cc(NC(=O)OCc3ccccc3)c2)c1 | < 4.00 | 4.28
FC(F)(F)Oc1cc(Cl)cc2c(Cc3ccc(-c4nnn[nH]4)cc3)c[nH]c12 | 5.11 | 4.90
O=C(Nc1ccc2c(c1)CNC2)c1ccc2[nH]ccc2c1 | < 4.00 | < 4.00
NCc1ccc(NC(=O)c2cc(Cl)cc3[nH]ncc23)cc1 | < 4.00 | < 4.00
CN1CCc2c(cccc2NC(=O)c2cc(Cl)cc(NC(=O)OCc3ccccc3)c2)C1 | < 4.00 | < 4.00
O=C(Nc1ccc2c(c1)CNC2)c1nccc2[nH]ncc12 | < 4.00 | < 4.00
C[C@]1(S(C)(=O)=O)C(=O)Nc2cc(F)cc(C(=O)Nc3ccc4c(c3)CNC4)c21 | < 4.00 | < 4.00
O=C(Nc1cc(Cl)cc(C(=O)Nc2ccc3c(c2)CCNC3)c1)OCc1ccccc1 | < 4.00 | 4.30 and 4.22
O=C(Nc1cc(Cl)cc(C(=O)NCc2ccc(-c3nnn[nH]3)cc2)c1)OCc1ccccc1 | 4.93 and 5.00 | 4.68
O=C(Nc1cc(-c2cccnc2)ccn1)c1cc2n(n1)CCC2 | < 4.00 | < 4.00
O=C(Nc1ccc2c(c1)OCO2)c1cc(Cl)cc2[nH]ncc12 | < 4.00 | < 4.00
NCCc1cc(Cl)cc(C(=O)Nc2cccc(CN)c2)c1 | < 4.00 | < 4.00
Cc1c(C(=O)Nc2cccc(C3CCOCC3)c2)cc(C2CC2)n1C | < 4.00 | < 4.00
O=C(O)Cc1cccc(NC(=O)c2cc(Cl)cc(NC(=O)OCc3ccccc3)c2)c1 | 4.40 | 4.13
O=C(NCC(F)F)[C@H](Nc1ccc2c(c1)CNC2)c1cc(Br)cc2[nH]ccc12 | < 4.00 | < 4.00
NCc1ccc(NS(=O)(=O)c2ccc(Oc3ccccc3Cl)cc2)cc1Cl | < 4.00 | < 4.00
CC(=Cc1cc(Cl)cc(NC(=O)OCc2ccccc2)c1)c1cccc(CN)c1 | < 4.00 | 4.63

Compound | pIC50 [1] | pIC50 [2]
CCCNC(=O)[C@H](Nc1cccc(-c2nn[nH]n2)c1)c1cc(Cl)cc(NC(=O)OCc2ccccc2)c1 | 5.03 and 5.01 | 4.76
CCC1CN(C(=O)Cn2ccnc(N3CC[C@@H](CO)C3)c2=O)C1 | < 4.00 | < 4.00
CN(C)CCc1ccc(NC(=O)c2cc(Cl)cc(NC(=O)OCc3ccccc3)c2)cc1 | < 4.00 | < 4.00
O=C(Nc1cc(Cl)cc(C(=O)Nc2cccc(Cc3nn[nH]n3)c2)c1)OCc1ccccc1 | < 4.00 | 4.66
O=C(Nc1cc(Cl)cc(-c2cc(C(=O)O)n(-c3ccc(F)cc3)n2)c1)OCc1ccccc1 | 4.98 | 4.76
O=C(Nc1ccc2c(c1)CNC2)c1cc(F)cc2[nH]c(-c3cccc(F)c3)nc12 | 4.36 and 4.44 | 5.31 and 5.34
NCc1ccc(NC(=O)c2cc(Cl)cc3[nH]ncc23)cc1F | < 4.00 | < 4.00
Cc1cc(C(F)(F)F)cc(C(=O)Nc2ccc3c(c2)CNC3)n1 | < 4.00 | 4.31
NCc1cccc(NC(=O)c2cc(C3CCCCC3)nc3ccc(F)cc23)c1 | < 4.00 | < 4.00
O=C(Nc1ccc2c(c1)CNC2)c1nc(Cl)nc2[nH]ccc12 | < 4.00 | < 4.00
Cc1c(C(=O)Nc2cc(C(=O)N3CC(C(N)=O)C3)ccn2)cc(C2CC2)n1C | < 4.00 | < 4.00
O=C(Nc1cc(Cl)cc([C@H](Nc2cccc(-c3nn[nH]n3)c2)C(=O)NC[C@H]2CCCO2)c1)OCc1ccccc1 | 4.76 | 4.47
O=C(Nc1ccc2c(c1)CNC2)c1nc(-c2ccccc2)cs1 | < 4.00 | < 4.00
NCc1cccc(NC(=O)[C@@H](NC(=O)OCc2ccccc2)c2ccc(OCc3ccccn3)cc2)c1 | < 4.00 | < 4.00
NCc1cccc(NC(=O)[C@@H](NC(=O)OCc2ccccc2)c2ccc(OC[C@H]3CCS(=O)(=O)C3)cc2)c1 | < 4.00 | < 4.00
C#Cc1cc(CN)ccc1NS(=O)(=O)c1ccc(Oc2ccccc2Cl)cc1 | < 4.00 | < 4.00
N[C@H]1Cc2ccc(NC(=O)c3cc(Cl)cc4[nH]ncc34)cc2C1 | < 4.00 | < 4.00
Cn1ccnc1C(=O)N1CCC([C@H](NC(=O)OCc2ccccc2)C(=O)Nc2cccc(CN)c2)CC1 | < 4.00 | < 4.00
NCc1cccc(NC(=O)c2cc(Cl)cc(N3CCCC3=O)c2)c1 | < 4.00 | < 4.00
